# Measurements as given in patent publication US20140322196A1 (priority 2011, published 2014).
# Ends that are not written are not given here.
# Key:
# [1] = test system: A/Roma-ISS/2/08 H1N1; conditions: read-out: EC50 (effective concentration 50%); A/Roma-ISS/2/08 H1N1, MDCK cells
# [2] = test system: A/Parma/24/09 H1N1; conditions: read-out: EC50 (effective concentration 50%); A/Parma/24/09 H1N1, MDCK cells
# [3] = test system: A/Parma/05/06 H3N2; conditions: read-out: EC50 (effective concentration 50%); A/Parma/05/06 H3N2, MDCK cells
# [4] = Cytotoxicity assay; type: cell-based, canine; conditions: dog, MDCK cells, read-out: CC50 (cytotoxic concentration 50%)
# Description: To establish the maximal non-cytotoxic dose of bLf and its derivatives, two-fold serial dilutions of each substance in culture medium were incubated at 37° C. with confluent MDCK cells grown in 96-well tissue culture microplates (Nalge Europe Ltd, Neerijse, Belgium). After 24 h, the following parameters were evaluated: cell morphology and viability (determined by neutral red staining) were examined by light microscopy and cell proliferation was evaluated quantitatively by microscopic counts after dispersion into individual cells with trypsin.
# [5] = Peptide stability; type: physicochemical
Sequence,EC50 [1] [nM],EC50 [2] [nM],EC50 [3] [nM],CC50 at 24 h [4] [nM],stability of the peptide (in words) [5]
"AGDDQGLDKCVPNSKEK [SEQ ID NO: 2, AGDDQGLDKCVPNSKEK]",0.0037,0.0034,0.0073,> 25000,–
"NGESSADWAKN [SEQ ID NO: 4, NGESSADWAKN]",–,–,0.0225,> 25000,–
"NGESTADWAKN (bovine lactoferrin peptide from 553 aa to 563 aa) [SEQ ID NO: 3, bLf C-lobe peptide, residues 553-563]",–,–,–,–,poor stability
"SKHSSLDCVLRP [SEQ ID NO: 1, SKHSSLDCVLRP]",0.004,0.0031,0.0058,> 25000,–
